Source: patent publication EP0103381B1, “Substituted anthra(1,9-cd)pyrazol-6(2H)-ones” (WARNER-LAMBERT COMPANY, priority 1982, dated 1984)
Like-named read-outs stand apart in the source and are kept apart here.

Key:
[1] = system: lymphocytic leukemia P388; assay: in vivo lymphocytic leukemia P388 test; design: species or system mice; conditions: Mus musculus, P388, ip, 720 h; for response vs control in vivo at 25 mg/kg: P388, Dose 25 mg/kg intraperitoneally; for response vs control in vivo at 0.78 mg/kg: P388, Dose 0.78 mg/kg intraperitoneally; for response vs control in vivo at 1.56 mg/kg: P388, Dose 1.56 mg/kg intraperitoneally
Experimental: The in vivo lymphocytic leukemia P388 test is carried out by the United States National Cancer Institute. The animals used are either male or female CD2F, mice. There are six to seven animals per test group. The tumor transplant is by intraperitoneal injection of dilute ascitic fluid containing cells of lymphocytic leukemia P388. The test compounds are administered intraperitoneally in two single doses with a four-day interval between doses at various dose levels following tumor inoculation. The animals are weighed and survivors are recorded on a regular basis for 30 days. A ratio of survival time for treated (T)/ control (C) animals is calculated. The criterion for efficacy is T/C x 100 > 125%. The positive control compound in this test is 1,4-dihydroxy-5,8-[bis[[2-[(2-hydroxyethyl)amino]-ethyl]amino]-9,10-anthracene- dione given at dosages ranging from 12.0 to 0.075 mg/kg. See Cancer Chemotherapy Reports, Part 3, 3, 1 (1972) for a comprehensive discussion of the protocol.

Penicillium avellaneum = assay: agar plate paper-disc inhibition zone screening; format: cell-based; conditions: Hamigera avellanea, read-out: Inhibition Zone Diameter mm (Dose mg/ml) P. Avellaneum
In short: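 Mycelia and spores from a six-day 28°C agar culture, suspended in saline with 0.05% Tween 80 at 20% transmittancy, were seeded into molten agar trays. Compounds at 3,000, 1,000, 500, 100 and 10 mcg/ml (solvent <10%) were applied on 12.7 mm paper discs. After at least 20-24 h incubation, inhibition zone diameter was measured in mm.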

Bacillus subtilis = assay: agar plate paper-disc inhibition zone screening; format: cell-based; conditions: read-out: Inhibition Zone Diameter mm (Dose mg/ml) B. Subtilis; for zone of inhibition at 500 µg/mL: Dose 0.5 mg/ml; for zone of inhibition at 1000 µg/mL: Dose 1.0 mg/ml
In short: (§1)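 Read-out: diameter (mm) of the inhibition zone around 12.7 mm paper discs after overnight (18-20 h) incubation at 37°C. Discs carried compound at 3,000-10 mcg/ml in alcohol, DMSO or DMF, final solvent <10%. Seeded agar trays used saline-suspended cells adjusted to 20-35% transmittancy.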

Aerobacter aerogenes = assay: agar plate paper-disc inhibition zone screening; format: cell-based; conditions: Klebsiella aerogenes, read-out: Inhibition Zone Diameter mm (Dose mg/ml) A. Aerogenes; for zone of inhibition at 500 µg/mL: Dose 0.5 mg/ml; for zone of inhibition at 1000 µg/mL: Dose 1.0 mg/ml
In short: as §1

Escherichia coli = assay: agar plate paper-disc inhibition zone screening; format: cell-based; conditions: read-out: Inhibition Zone Diameter mm (Dose mg/ml) E. Coli; for zone of inhibition at 500 µg/mL: Dose 0.5 mg/ml
In short: as §1

Streptococcus faecalis = assay: agar plate paper-disc inhibition zone screening; format: cell-based; conditions: Enterococcus faecalis, read-out: Inhibition Zone Diameter mm (Dose mg/ml) S. Faecalis
In short: as §1

[2] = two single doses four days apart, read-out: T/C × 100 (Percent)
[3] = P388, Dose 3.12 mg/kg intraperitoneally, two single doses four days apart, read-out: T/C × 100 (Percent)
[4] = P388, Dose 6.25 mg/kg intraperitoneally, two single doses four days apart, read-out: T/C × 100 (Percent)
[5] = P388, Dose 12.5 mg/kg intraperitoneally, two single doses four days apart, read-out: T/C × 100 (Percent)
[6] = P388, Dose 50 mg/kg intraperitoneally, two single doses four days apart, read-out: T/C × 100 (Percent)
[7] = P388, Dose 100 mg/kg intraperitoneally, two single doses four days apart, read-out: T/C × 100 (Percent)

## CCN(CC)CCNc1ccc2c3c(nn2CCO)-c2c(O)ccc(O)c2C(=O)c13 [Example 35, 5-[[2-(Diethylamino)ethyl]amino]-7,10-dihydroxy-2-(2-hydroxyethyl)anthra[1,9-cd]pyrazol-6(2H)-one]
[1]; [2]
  response vs control in vivo at 25 mg/kg: 128%
[1]; P388, Dose 37.5 mg/kg intraperitoneally, two single doses four days apart, read-out: T/C × 100 (Percent)
  response vs control in vivo at 37.5 mg/kg: 135%
[1]; P388, Dose 75 mg/kg intraperitoneally, two single doses four days apart, read-out: T/C × 100 (Percent)
  response vs control in vivo at 75 mg/kg: 135%
[1]; P388, Dose 150 mg/kg intraperitoneally, two single doses four days apart, read-out: T/C × 100 (Percent)
  response vs control in vivo at 150 mg/kg: 155%
[1]; P388, Dose 200 mg/kg intraperitoneally, two single doses four days apart, read-out: T/C × 100 (Percent)
  response vs control in vivo at 200 mg/kg: 167%
[1]; P388, Dose 300 mg/kg intraperitoneally, two single doses four days apart, read-out: T/C × 100 (Percent)
  response vs control in vivo at 300 mg/kg: 177%
[1]; P388, Dose 400 mg/kg intraperitoneally, two single doses four days apart, read-out: T/C × 100 (Percent)
  response vs control in vivo at 400 mg/kg: 190%
Penicillium avellaneum; Dose 3.0 mg/ml
  zone of inhibition at 3000 µg/mL: 0 mm
Bacillus subtilis
  zone of inhibition at 500 µg/mL: 14 mm
Aerobacter aerogenes; Dose 3.0 mg/ml
  zone of inhibition at 3000 µg/mL: 0 mm
Escherichia coli; Dose 3.0 mg/ml
  zone of inhibition at 3000 µg/mL: 0 mm
Streptococcus faecalis; Dose 3.0 mg/ml
  zone of inhibition at 3000 µg/mL: 14 mm

## CCN(CC)CC(O)Cn1nc2c3c(c(NCCNCCO)ccc31)C(=O)c1c(O)ccc(O)c1-2 (stereo not drawn) [Example 43, 2-[3-(Diethylamino)-2-hydroxypropyl]-7,10-dihydroxy-5-[[2-[(2-hydroxyethyl)amino]ethyl]amino]-anthra[1,9-cd]pyrazol-6(2H)-one]
[1]; [2]
  response vs control in vivo at 0.78 mg/kg: 132%
  response vs control in vivo at 1.56 mg/kg: 139%
Penicillium avellaneum; Dose 3.0 mg/ml
  zone of inhibition at 3000 µg/mL: 0 mm
Bacillus subtilis; Dose 3.0 mg/ml
  zone of inhibition at 3000 µg/mL: 14 mm
Aerobacter aerogenes
  zone of inhibition at 500 µg/mL: 16 mm
Escherichia coli
  zone of inhibition at 500 µg/mL: 16 mm
Streptococcus faecalis; Dose 3.0 mg/ml
  zone of inhibition at 3000 µg/mL: 15 mm

## CCN(CC)CCNc1ccc2c3c(nn2CCNCCO)-c2c(O)ccc(O)c2C(=O)c13 [Example 57, 5-[[2-(Diethylamino)ethyl]amino]-7,10-dihydroxy-2-[2-[(2-hydroxyethyl)amino]ethyl]anthra[1,9-cd]pyrazol-6(2H)-one]
[1]; [2]
  response vs control in vivo at 1.56 mg/kg: 131%
  response vs control in vivo at 25 mg/kg: 190%
[1]; [3]
  response vs control in vivo at 3.12 mg/kg: 148%
[1]; [4]
  response vs control in vivo at 6.25 mg/kg: 154%
[1]; [5]
  response vs control in vivo at 12.5 mg/kg: 177%
[1]; [6]
  response vs control in vivo at 50 mg/kg: 241%
Penicillium avellaneum; Dose 3.0 mg/ml
  zone of inhibition at 3000 µg/mL: 14 mm
Bacillus subtilis
  zone of inhibition at 500 µg/mL: 15 mm
Aerobacter aerogenes
  zone of inhibition at 500 µg/mL: 14 mm
Escherichia coli
  zone of inhibition at 500 µg/mL: 14 mm
Streptococcus faecalis; Dose 1.0 mg/ml
  zone of inhibition at 1000 µg/mL: 14 mm

## O=C1c2c(O)ccc(O)c2-c2nn(CCO)c3ccc(NCCNCCO)c1c23 [Example 36, 5-[[2-[(2-Hydroxyethyl)amino]ethyl]amino]-7,10-dihydroxy-2-(2-hydroxyethyl)anthra[1,9-cd]pyrazol-6(2H)- . one]
[1]; [4]
  response vs control in vivo at 6.25 mg/kg: 143%
[1]; [5]
  response vs control in vivo at 12.5 mg/kg: 158%
[1]; [6]
  response vs control in vivo at 50 mg/kg: 163%
[1]; [7]
  response vs control in vivo at 100 mg/kg: 172%
Penicillium avellaneum; Dose 3.0 mg/ml
  zone of inhibition at 3000 µg/mL: 0 mm
Bacillus subtilis; Dose 3.0 mg/ml
  zone of inhibition at 3000 µg/mL: 17 mm
Aerobacter aerogenes; Dose 3.0 mg/ml
  zone of inhibition at 3000 µg/mL: 0 mm
Escherichia coli; Dose 3.0 mg/ml
  zone of inhibition at 3000 µg/mL: 0 mm
Streptococcus faecalis; Dose 3.0 mg/ml
  zone of inhibition at 3000 µg/mL: 0 mm

## NCCCNc1ccc2c3c(nn2CCNCCO)-c2c(O)ccc(O)c2C(=O)c13 [Example 58, 5-[(3-Aminopropyl)amino]-7,10-dihydroxy-2-[2-[(2-hydroxyethyl)amino]ethyl]anthra[1,9-cd]pyrazol-6(2H)-one]
[1]; read-out: T/C × 100 (Percent), P388, Dose 3.12 mg/kg intraperitoneally, two single doses four days apart
  response vs control in vivo at 3.12 mg/kg: 165%
[1]; read-out: T/C × 100 (Percent), P388, Dose 6.25 mg/kg intraperitoneally, two single doses four days apart
  response vs control in vivo at 6.25 mg/kg: 165%
[1]; read-out: T/C × 100 (Percent), P388, Dose 12.5 mg/kg intraperitoneally, two single doses four days apart
  response vs control in vivo at 12.5 mg/kg: 177%
[1]; read-out: T/C × 100 (Percent), P388, Dose 50 mg/kg intraperitoneally, two single doses four days apart
  response vs control in vivo at 50 mg/kg: 254%
[1]; read-out: T/C × 100 (Percent), P388, Dose 100 mg/kg intraperitoneally, two single doses four days apart
  response vs control in vivo at 100 mg/kg: 131%
Penicillium avellaneum
  zone of inhibition at 3000 µg/mL: 0 mm
Bacillus subtilis
  zone of inhibition at 3000 µg/mL: 0 mm
Aerobacter aerogenes
  zone of inhibition at 3000 µg/mL: 14 mm
Escherichia coli
  zone of inhibition at 3000 µg/mL: 15 mm
Streptococcus faecalis
  zone of inhibition at 3000 µg/mL: 0 mm

## CN(C)CCNCCNc1ccc2c3c(nn2CCNCCO)-c2c(O)ccc(O)c2C(=O)c13 [Example 63]
[1]; [3]
  response vs control in vivo at 3.12 mg/kg: 152%
[1]; [4]
  response vs control in vivo at 6.25 mg/kg: 169%
Penicillium avellaneum; Dose 3.0 mg/ml
  zone of inhibition at 3000 µg/mL: 0 mm
Bacillus subtilis; Dose 3.0 mg/ml
  zone of inhibition at 3000 µg/mL: 18 mm
Aerobacter aerogenes
  zone of inhibition at 1000 µg/mL: 14 mm
Escherichia coli; Dose 1.0 mg/ml
  zone of inhibition at 1000 µg/mL: 15 mm
Streptococcus faecalis; Dose 3.0 mg/ml
  zone of inhibition at 3000 µg/mL: 16 mm

## NCCCCNc1ccc2c3c(nn2CCNCCO)-c2c(O)ccc(O)c2C(=O)c13 [Example 59, 5-[(4-Aminobutyl)amino]-7,10-dihydroxy-2-[2-[(2-hydroxyethyl)amino]ethyl]anthra[1,9-cd]pyrazol-6(2H)-one]
[1]; [3]
  response vs control in vivo at 3.12 mg/kg: 130%
[1]; [4]
  response vs control in vivo at 6.25 mg/kg: 131%
[1]; [5]
  response vs control in vivo at 12.5 mg/kg: 139%
[1]; [2]
  response vs control in vivo at 25 mg/kg: 150%
[1]; [7]
  response vs control in vivo at 100 mg/kg: 172%
Penicillium avellaneum; Dose 3.0 mg/ml
  zone of inhibition at 3000 µg/mL: 0 mm
Bacillus subtilis; Dose 3.0 mg/ml
  zone of inhibition at 3000 µg/mL: 0 mm
Aerobacter aerogenes; Dose 3.0 mg/ml
  zone of inhibition at 3000 µg/mL: 16 mm
Escherichia coli; Dose 3.0 mg/ml
  zone of inhibition at 3000 µg/mL: 15 mm
Streptococcus faecalis; Dose 3.0 mg/ml
  zone of inhibition at 3000 µg/mL: 0 mm

## CN(C)CCn1nc2c3c(c(NCCNCCO)ccc31)C(=O)c1c(O)ccc(O)c1-2 [Example 32]
[1]; [2]
  response vs control in vivo at 0.78 mg/kg: 161%
  response vs control in vivo at 1.56 mg/kg: 163%
[1]; [4]
  response vs control in vivo at 6.25 mg/kg: 214%
Penicillium avellaneum; Dose 3.0 mg/ml
  zone of inhibition at 3000 µg/mL: 0 mm
Bacillus subtilis
  zone of inhibition at 1000 µg/mL: 15 mm
Aerobacter aerogenes
  zone of inhibition at 1000 µg/mL: 14 mm
Escherichia coli
  zone of inhibition at 500 µg/mL: 15 mm
Streptococcus faecalis; Dose 3.0 mg/ml
  zone of inhibition at 3000 µg/mL: 0 mm

## CN(C)CCn1nc2c3c(c(NCCN)ccc31)C(=O)c1c(O)ccc(O)c1-2 [Example 33, 5-[(2-Aminoethyl)amino]-2-[2-(dimethylamino)ethyl]-7,10-dihydroxyanthra[1,9-cd]pyrazol-6(2H)-one]
[1]; [3]
  response vs control in vivo at 3.12 mg/kg: 182%
[1]; [4]
  response vs control in vivo at 6.25 mg/kg: 182%
Penicillium avellaneum; Dose 3.0 mg/ml
  zone of inhibition at 3000 µg/mL: 0 mm
Bacillus subtilis
  zone of inhibition at 1000 µg/mL: 14 mm
Aerobacter aerogenes
  zone of inhibition at 500 µg/mL: 14 mm
Escherichia coli
  zone of inhibition at 500 µg/mL: 14 mm
Streptococcus faecalis; Dose 3.0 mg/ml
  zone of inhibition at 3000 µg/mL: 16 mm
